Target: Glutamate NMDA receptor; Grin1/Grin2c (Rattus norvegicus) (UniProt P35439+Q00961)
Assay: Modulation of recombinant rat GluN1/GluN2C expressed in Xenopus laevis oocytes assessed as potentiation of glycine/glutamate-induced current by measuring receptor response at 100 uM by two-electrode voltage-clamp method relative to control
Assay type: cell-based

Row | Activity [%] | SMILES
1 | 97 | COC(=O)c1ccc(C2C(C(=O)c3ccncc3)=C(O)C(=O)N2CCc2ccncc2)cc1 (configuration not stated)
2 | 84 | COC(=O)c1ccc(C2C(C(=O)c3ccncc3)=C(O)C(=O)N2CCc2c[nH]cn2)cc1 (configuration not stated)

Source: ChEMBL document CHEMBL3879913, “NMDA receptor modulators and uses related thereto” (2014)
